Measurements reported in ChEMBL document CHEMBL1124217, “2,4-Diamino-5-benzylpyrimidines and analogues as antibacterial agents. 9. Lipophilic trimethoprim analogues as antigonococcal agents” (J Med Chem, 1988).
Values after ≈ are worked out from the molar mass of the structure shown.

Assays:
Klebsiella aerogenes = assay: Inhibition of growth of Enterobacter aerogenes (2200/186) measured as MIC(compound/MIC Trimethoprim; assay type: functional
Klebsiella pneumoniae = assay: Inhibition of growth of Klebsiella pneumoniae (CN3632) measured as MIC compound/MIC Trimethoprim; assay type: functional
Neisseria gonorrhoeae = assay: Inhibition of growth of Neisseria gonorrhoeae; assay type: functional
Rattus norvegicus [1] = assay: Conc in serum of male rat 2 hr after administration of dose; assay type: functional, organism-based
Rattus norvegicus [2] = assay: Conc in serum of male rat 3h after administration of dose; assay type: functional, organism-based
Rattus norvegicus [3] = assay: Conc in serum of male rat 6 hr after administration of dose; assay type: functional, organism-based
Rattus norvegicus [4] = assay: Conc in stomach of male rat 0.25 hr after administration of dose; assay type: functional, organism-based
Rattus norvegicus [5] = assay: Conc in stomach of male rat 0.75h after administration of dose; assay type: functional, organism-based
Rattus norvegicus [6] = assay: Conc in stomach of male rat 1.5h after administration of dose; assay type: functional, organism-based
Proteus vulgaris = assay: Inhibition of growth of Proteus vulgaris (CN329) measured as MIC compound/MIC Trimethoprim; assay type: functional
Rattus norvegicus [7] = assay: Conc in muscle of male rat 0.25 hr after administration of dose; assay type: functional, organism-based; details: Muscle tissue
Rattus norvegicus [8] = assay: Conc in muscle of male rat 0.50 hr after administration of dose; assay type: functional, organism-based; details: Muscle tissue
Rattus norvegicus [9] = assay: Conc in muscle of male rat 0.75h after administration of dose; assay type: functional, organism-based; details: Muscle tissue
Rattus norvegicus [10] = assay: Conc in muscle of male rat 1.5h after administration of dose; assay type: functional, organism-based; details: Muscle tissue
Rattus norvegicus [11] = assay: Conc in muscle of male rat 10h after administration of dose; assay type: functional, organism-based; details: Muscle tissue
Rattus norvegicus [12] = assay: Conc in muscle of male rat 2 hr after administration of dose; assay type: functional, organism-based; details: Muscle tissue
Rattus norvegicus [13] = assay: Conc in muscle of male rat 3h after administration of dose; assay type: functional, organism-based; details: Muscle tissue
Rattus norvegicus [14] = assay: Conc in muscle of male rat 4 hr after administration of dose; assay type: functional, organism-based; details: Muscle tissue
Rattus norvegicus [15] = assay: Conc in ovary of female rat 1.5h after administration of dose; assay type: functional, organism-based; details: Female gonad
Rattus norvegicus [16] = assay: Conc in ovary of female rat 10h after administration of dose; assay type: functional, organism-based; details: Female gonad
Rattus norvegicus [17] = assay: Conc in ovary of female rat 1 hr after administration of dose; assay type: functional, organism-based; details: Female gonad
Rattus norvegicus [18] = assay: Conc in ovary of female rat 2 hr after administration of dose; assay type: functional, organism-based; details: Female gonad
Rattus norvegicus [19] = assay: Conc in ovary of female rat 3h after administration of dose; assay type: functional, organism-based; details: Female gonad
Rattus norvegicus [20] = assay: Conc in testes of male 1 hr rat after administration of dose; assay type: functional, organism-based; details: Testis
Rattus norvegicus [21] = assay: Conc in testes of male rat 1.5h after administration of dose; assay type: functional, organism-based; details: Testis
Rattus norvegicus [22] = assay: Conc in testes of male rat 10h after administration of dose; assay type: functional, organism-based; details: Testis
Rattus norvegicus [23] = assay: Conc in testes of male rat 24 hr after administration of dose; assay type: functional, organism-based; details: Testis
Rattus norvegicus [24] = assay: Conc in testes of male rat 4 hr after administration of dose; assay type: functional, organism-based; details: Testis
Rattus norvegicus [25] = assay: Conc in testes of male rat 6 hr after administration of dose; assay type: functional, organism-based; details: Testis
Rattus norvegicus [26] = assay: Conc in intestine of male rat 2 hr after administration of dose; assay type: functional, organism-based
Rattus norvegicus [27] = assay: Conc in intestine of male rat 6 hr after administration of dose; assay type: functional, organism-based
Rattus norvegicus [28] = assay: Conc in kidney of male rat 1.5h after administration of dose; assay type: functional, organism-based
Rattus norvegicus [29] = assay: Conc in kidney of male rat 10h after administration of dose; assay type: functional, organism-based
Rattus norvegicus [30] = assay: Conc in kidney of male rat 1 hr after administration of dose; assay type: functional, organism-based
Rattus norvegicus [31] = assay: Conc in kidney of male rat 24 hr after administration of dose; assay type: functional, organism-based
Rattus norvegicus [32] = assay: Conc in kidney of male rat 2 hr after administration of dose; assay type: functional, organism-based
Rattus norvegicus [33] = assay: Conc in kidney of male rat 3h after administration of dose; assay type: functional, organism-based
Rattus norvegicus [34] = assay: Conc in kidney of male rat 6 hr after administration of dose; assay type: functional, organism-based
Rattus norvegicus [35] = assay: Conc in liver of male rat 3h after administration of dose; assay type: functional, organism-based
Rattus norvegicus [36] = assay: Conc in lung of male rat 0.50 hr after administration of dose; assay type: functional, organism-based
Rattus norvegicus [37] = assay: Conc in ovary of female rat 4 hr after administration of dose; assay type: functional, organism-based; details: Female gonad
Rattus norvegicus [38] = assay: Conc in ovary of female rat 6 hr after administration of dose; assay type: functional, organism-based; details: Female gonad
Rattus norvegicus [39] = assay: Conc in serum of female rat 0.25 hr after administration of dose; assay type: functional, organism-based
Rattus norvegicus [40] = assay: Conc in serum of female rat 1 hr after administration of dose; assay type: functional, organism-based
Rattus norvegicus [41] = assay: Conc in serum of female rat 4 hr after administration of dose; assay type: functional, organism-based
Rattus norvegicus [42] = assay: Conc in serum of female rat 6 hr after administration of dose; assay type: functional, organism-based
Rattus norvegicus [43] = assay: Conc in serum of male rat 0.75h after administration of dose; assay type: functional, organism-based
Rattus norvegicus [44] = assay: Conc in liver of male rat after 0.75h administration of dose; assay type: functional, organism-based
Rattus norvegicus [45] = assay: Conc in intestine of male rat 10h after administration of dose; assay type: functional, organism-based
Rattus norvegicus [46] = assay: Conc in serum of female rat 2 hr after administration of dose; assay type: functional, organism-based
Rattus norvegicus [47] = assay: Conc in lung of male rat 0.75h after administration of dose; assay type: functional, organism-based
Rattus norvegicus [48] = assay: Conc in lung of male rat 1.5h after administration of dose; assay type: functional, organism-based
Rattus norvegicus [49] = assay: Conc in lung of male rat 10h after administration of dose; assay type: functional, organism-based
Rattus norvegicus [50] = assay: Conc in lung of male rat 1 hr after administration of dose; assay type: functional, organism-based
Rattus norvegicus [51] = assay: Conc in lung of male rat 24 hr after administration of dose; assay type: functional, organism-based
Rattus norvegicus [52] = assay: Conc in lung of male rat 2 hr after administration of dose; assay type: functional, organism-based
Rattus norvegicus [53] = assay: Conc in lung of male rat 6 hr after administration of dose; assay type: functional, organism-based
Rattus norvegicus [54] = assay: Conc in lung of male rat after 0.25 hr administration of dose; assay type: functional, organism-based
Rattus norvegicus [55] = assay: Conc in brain of male rat 0.25 hr after administration of dose; assay type: functional, organism-based
Rattus norvegicus [56] = assay: Conc in brain of male rat 0.50 hr after administration of dose; assay type: functional, organism-based
Rattus norvegicus [57] = assay: Conc in brain of male rat 0.75h after administration of dose; assay type: functional, organism-based
Rattus norvegicus [58] = assay: Conc in brain of male rat 1.5h after administration of dose; assay type: functional, organism-based
Rattus norvegicus [59] = assay: Conc in brain of male rat 10h after administration of dose; assay type: functional, organism-based
Rattus norvegicus [60] = assay: Conc in brain of male rat 1 hr after administration of dose; assay type: functional, organism-based
Rattus norvegicus [61] = assay: Conc in brain of male rat 2 hr after administration of dose; assay type: functional, organism-based
Rattus norvegicus [62] = assay: Conc in brain of male rat 4 hr after administration of dose; assay type: functional, organism-based
Rattus norvegicus [63] = assay: Conc in brain of male rat 6 hr after administration of dose; assay type: functional, organism-based
Rattus norvegicus [64] = assay: Conc in intestine of male rat 0.50 hr after administration of dose; assay type: functional, organism-based
Rattus norvegicus [65] = assay: Conc in intestine of male rat 0.75h after administration of dose; assay type: functional, organism-based
Rattus norvegicus [66] = assay: Conc in intestine of male rat 24 hr after administration of dose; assay type: functional, organism-based
Rattus norvegicus [67] = assay: Conc in stomach of male rat 24 hr after administration of dose; assay type: functional, organism-based
Rattus norvegicus [68] = assay: Conc in kidney of male rat 4 hr after administration of dose; assay type: functional, organism-based
Rattus norvegicus [69] = assay: Conc in liver of male rat after 0.25 hr administration of dose; assay type: functional, organism-based
Rattus norvegicus [70] = assay: Conc in ovary of female rat 0.75h after administration of dose; assay type: functional, organism-based; details: Female gonad
Rattus norvegicus [71] = assay: Conc in serum of female rat 10h after administration of dose; assay type: functional, organism-based

In the case of CC(C)c1cc(Cc2cnc(N)nc2N)cc(C(C)C)c1O, the MIC ratio (Klebsiella aerogenes) is reported as 100, the MIC ratio (Klebsiella pneumoniae) is reported as 300 and the MIC (Neisseria gonorrhoeae) is reported as 9.2 µM (≈ 2.76 µg/mL). For the same compound, the Concentration (Rattus norvegicus [1]) was 0.49 µg/g, the Concentration (Rattus norvegicus [2]) was 0.47 µg/g and the Concentration (Rattus norvegicus [3]) was 0.27 µg/g. It also gave a Concentration (Rattus norvegicus [4]) of 387 µg/g, a Concentration (Rattus norvegicus [5]) of 319 µg/g and a Concentration (Rattus norvegicus [6]) of 97.1 µg/g. For the same compound, the MIC ratio (Proteus vulgaris) was 300, the Concentration (Rattus norvegicus [7]) was 0.44 µg/g and the Concentration (Rattus norvegicus [8]) was 1.45 µg/g. For the same compound, the Concentration (Rattus norvegicus [9]) was 2.31 µg/g, the Concentration (Rattus norvegicus [10]) was 1.84 µg/g and the Concentration (Rattus norvegicus [11]) was 0.13 µg/g. It also gave a Concentration (Rattus norvegicus [12]) of 1.4 µg/g, a Concentration (Rattus norvegicus [13]) of 1.38 µg/g and a Concentration (Rattus norvegicus [14]) of 0.67 µg/g. The Concentration (Rattus norvegicus [15]) was 4.5 µg/g, the Concentration (Rattus norvegicus [16]) was 0.23 µg/g and the Concentration (Rattus norvegicus [17]) was 3.33 µg/g. It also gave a Concentration (Rattus norvegicus [18]) of 1.93 µg/g, a Concentration (Rattus norvegicus [19]) of 2.06 µg/g and a Concentration (Rattus norvegicus [20]) of 1.32 µg/g. It also gave a Concentration (Rattus norvegicus [21]) of 1.52 µg/g, a Concentration (Rattus norvegicus [22]) of 0.66 µg/g and a Concentration (Rattus norvegicus [23]) of 0.15 µg/g. It also gave a Concentration (Rattus norvegicus [24]) of 1.01 µg/g, a Concentration (Rattus norvegicus [25]) of 0.41 µg/g and a Concentration (Rattus norvegicus [26]) of 11.6 µg/g. It also gave a Concentration (Rattus norvegicus [27]) of 4.13 µg/g, a Concentration (Rattus norvegicus [28]) of 6.74 µg/g and a Concentration (Rattus norvegicus [29]) of 1.13 µg/g. The Concentration (Rattus norvegicus [30]) was 7.78 µg/g, the Concentration (Rattus norvegicus [31]) was 0.5 µg/g and the Concentration (Rattus norvegicus [32]) was 4.08 µg/g. The Concentration (Rattus norvegicus [33]) was 4.11 µg/g, the Concentration (Rattus norvegicus [34]) was 1.55 µg/g and the Concentration (Rattus norvegicus [35]) was 9.56 µg/g. It also gave a Concentration (Rattus norvegicus [36]) of 8.31 µg/g, a Concentration (Rattus norvegicus [37]) of 1.55 µg/g and a Concentration (Rattus norvegicus [38]) of 0.71 µg/g. It also gave a Concentration (Rattus norvegicus [39]) of 0.49 µg/g, a Concentration (Rattus norvegicus [40]) of 1.09 µg/g and a Concentration (Rattus norvegicus [41]) of 0.53 µg/g. For the same compound, the Concentration (Rattus norvegicus [42]) was 0.34 µg/g, the Concentration (Rattus norvegicus [43]) was 1.13 µg/g and the Concentration (Rattus norvegicus [44]) was 23.1 µg/g. It also gave a Concentration (Rattus norvegicus [45]) of 2.29 µg/g, a Concentration (Rattus norvegicus [46]) of 0.68 µg/g and a Concentration (Rattus norvegicus [47]) of 11.3 µg/g. The Concentration (Rattus norvegicus [48]) was 7.17 µg/g, the Concentration (Rattus norvegicus [49]) was 0.4 µg/g and the Concentration (Rattus norvegicus [50]) was 11.9 µg/g. For the same compound, the Concentration (Rattus norvegicus [51]) was 0.1 µg/g, the Concentration (Rattus norvegicus [52]) was 4.98 µg/g and the Concentration (Rattus norvegicus [53]) was 0.52 µg/g. The Concentration (Rattus norvegicus [54]) was 2.52 µg/g, the Concentration (Rattus norvegicus [55]) was 0.13 µg/g and the Concentration (Rattus norvegicus [56]) was 0.58 µg/g. For the same compound, the Concentration (Rattus norvegicus [57]) was 1.01 µg/g, the Concentration (Rattus norvegicus [58]) was 0.65 µg/g and the Concentration (Rattus norvegicus [59]) was 0.04 µg/g. It also gave a Concentration (Rattus norvegicus [60]) of 0.91 µg/g, a Concentration (Rattus norvegicus [61]) of 0.43 µg/g and a Concentration (Rattus norvegicus [62]) of 0.19 µg/g. The Concentration (Rattus norvegicus [63]) was 0.05 µg/g, the Concentration (Rattus norvegicus [64]) was 114 µg/g and the Concentration (Rattus norvegicus [65]) was 112 µg/g. For the same compound, the Concentration (Rattus norvegicus [66]) was 0.85 µg/g, the Concentration (Rattus norvegicus [67]) was 1.49 µg/g and the Concentration (Rattus norvegicus [68]) was 2.07 µg/g. The Concentration (Rattus norvegicus [69]) was 17.4 µg/g, the Concentration (Rattus norvegicus [70]) was 4.48 µg/g and the Concentration (Rattus norvegicus [71]) was 0.16 µg/g.
